Experimental data reported in patent US20240391930A1, “SPIROCYCLIC BICYCLIC MODULATORS OF CHOLESTEROL BIOSYNTHESIS AND THEIR USE FOR PROMOTING REMYELINATION” (GENENTECH, INC., priority 2021, published 2024).
pEC50, pKi: −log10 of the molar value.

Tests used:
[1] = molecular target: T1, human emopamil binding protein and human 7-dehydrocholesterol reductase (hEBP-DHCR7) (Homo sapiens, UniProt Q15125); assay: hEBP-DHCR7 radioligand filtration binding assay; conditions: membranes of HEK293 co-expressing hEBP and DHCR7; [3H] 2-thia-6-azaspiro[3.4]octane radioligand; 8 doses 0.06 to 5000 nM
T1 construct: expressed in transfected cells; host or cells: HEK 293 cells, transient transfection with 2 DNA constructs
Summary of the method: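 Membranes from HEK293 cells transiently co-expressing human EBP and DHCR7 (10 μg/well) incubated 3 h at 22 °C with tritiated 2-thia-6-azaspiro[3.4]octane dioxide radioligand (25 nM stock addition) and compound at 0.06–5000 nM final. Bound ligand collected on PEI-treated GF/B filters, scintillation-counted. IC50 by Hill fit; reported as Ki.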

[2] = tested on: zymostenol accumulation in EpiSC-derived OPCs (EBP); assay: GC/MS-based sterol profiling (zymostenol accumulation); assay type: cell-based; conditions: Mus musculus, 24 hours, 8 doses from 0.15 nM to 333 nM, read-out: Zymostenol GCMS EC50
Summary of the method: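 Zymostenol level is expressed relative to that after 24 h with 100 nM positive-control reference, measured by full-scan GC/MS (m/z 458) with cholesterol-d7 internal standard after BSTFA derivatisation. Cells were EpiSC-derived OPCs, 100,000/well in N2B27 without growth factors, treated 24 h, from two or more independent platings.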

EpiSC-derived OPCs = assay: In vitro phenotypic screening of OPCs (MBP high-content imaging); assay type: cell-based; conditions: Mus musculus, 72 h; percentage of MBP-positive oligodendrocytes, 3 days, 0.5 nM to 1000 nM; read-out: OPC EC50
Description: To assess effects of treatments on OPCs, all treatments were assayed in two or more independent platings of epiblast stem cell-derived OPCs (EpiSC). EpiSC-derived OPCs were obtained using in vitro differentiation protocols and culture conditions described previously (Najm et al, 2011, Nature Methods). OPCs were expanded and frozen down in aliquots. OPCs were thawed into growth conditions for at least one passage before use in further assays.
EpiSC-derived OPCs were grown and expanded in poly-L-ornithine (PO) and laminin-coated flasks in N2B27 media (DMEM/F12 (Gibco), N2-MAX (R&D Systems), B-27 (ThermoFisher), and GlutaMax (Gibco)) supplemented with FGF2 ([…], R&D systems, 233-FB-025) and PDGF-AA ([…], R&D systems, 233-AA-050) before harvesting for experiments. The cells were seeded onto poly-L-ornithine or poly-D-lysine coated CellCarrier Ultra plates (PerkinElmer) coated with laminin (Sigma, L2020) at a density of 150,000/cm^2 in N2B27 media without growth factors. For dose-response testing, a 1000× compound stock in dimethyl sulphoxide (DMSO) was added to assay plates, resulting in 8-point dose curves with final concentrations between 1000 nM and 0.5 nM. Positive controls and DMSO vehicle controls were included in each assay plate. Cells were incubated under standard conditions (37° C., 5% CO2) for 3 days and fixed with 4% paraformaldehyde (PFA) in phosphate buffered saline (PBS) for 20 min. Fixed plates were washed with PBS, permeabilized with 0.1% Triton X-100, and blocked with 10% donkey serum (v/v) in PBS for 40 min. Then, cells were labelled with MBP antibodies (Abcam, ab7349; 1:200) for 2 h at room temperature, washed with PBS, and stained with Alexa Fluor conjugated secondary antibodies (1:500) for 45 min. Nuclei were visualized by DAPI staining (Sigma; 1 μg/ml), followed by further PBS washes.
Cells and cell culture plates were imaged on the Operetta High Content Imaging and Analysis system (PerkinElmer). Analysis (PerkinElmer Harmony and Columbus software) began by identifying intact nuclei stained by DAPI. The peri-nuclear region of each cell was then cross-referenced with the […] (MBP) stain to identify oligodendrocyte nuclei, and from this the percentage of oligodendrocytes was calculated.

T1 sequence (Q15125 whole entry): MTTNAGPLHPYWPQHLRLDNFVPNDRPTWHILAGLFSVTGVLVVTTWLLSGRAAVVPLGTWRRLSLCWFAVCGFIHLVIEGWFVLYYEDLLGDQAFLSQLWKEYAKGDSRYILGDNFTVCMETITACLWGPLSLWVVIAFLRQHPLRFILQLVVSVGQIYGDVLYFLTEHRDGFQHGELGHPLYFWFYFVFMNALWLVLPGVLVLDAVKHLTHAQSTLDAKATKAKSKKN

SMILES	pKi [1]	pEC50 [2]	pEC50 (EpiSC-derived OPCs)
CC(C)n1nc(-c2cncc(OC(F)F)c2)cc1[C@H]1[C@@H]2C[C@@H](N3CCC4(CC3)CS(=O)(=O)C4)C[C@@H]21 (single isomer, unassigned) [Compound 45*]	6.88	8.09	7.85
CC(C)(C)n1nc(-c2cccc(C(F)(F)F)c2)nc1[C@H]1[C@@H]2C[C@@H](N3CCC4(C3)CS(=O)(=O)C4)C[C@@H]21 (single isomer, unassigned) [Compound 75]	7.83	8.66	8.21
CC(C)n1nc(-c2cncc(C(F)(F)F)c2)cc1[C@H]1[C@@H]2C[C@@H](N3CC[C@]4(CCS(=O)(=O)C4)C3)C[C@@H]21 (single isomer, unassigned) [Compound 8*]	7.74	8.44	8.60
CCn1nc(-c2cccnc2)cc1[C@H]1[C@@H]2C[C@H](N3CCC4(C3)CS(=O)(=O)C4)C[C@@H]21 (single isomer, unassigned) [Compound 65*]	7.28	7.74	7.19
O=S1(=O)CC2(CCN([C@H]3C[C@@H]4[C@H](C3)[C@H]4c3cc(C(F)(F)F)nn3CC(F)F)CC2)C1 (single isomer, unassigned) [Compound 63*]	7.19	7.72	6.89
CC(C)n1nc(C2CCC(F)(F)CC2)cc1[C@H]1[C@@H]2C[C@@H](N3CCC4(C3)CS(=O)(=O)C4)C[C@@H]21 [Compound 108, 6-((1R,3s,5S,6r)-6-(3-(4,4-Difluorocyclohexyl)-1-isopropyl-1H-pyrazol-5-yl)bicyclo[3.1.0]hexan-3-yl)-2-thia-6-azaspiro[3.4]octane 2,2-dioxide]	7.67	7.97	6.99
CC(C)n1nc(-c2cccc(C(F)(F)F)c2)nc1[C@H]1[C@@H]2C[C@@H](N3CCC4(C3)CS(=O)(=O)C4)C[C@@H]21 [Compound 51, 6-((1R,3s,5S,6r)-6-(1-Isopropyl-3-(3-(trifluoromethyl)phenyl)-1H-1,2,4-triazol-5-yl)bicyclo[3.1.0]hexan-3-yl)-2-thia-6-azaspiro[3.4]octane 2,2-dioxide]	7.93	8.19	7.43
CCn1nc(-c2cncc(C(F)(F)F)c2)cc1[C@H]1[C@@H]2C[C@H](N3CCC4(CC3)CS(=O)(=O)C4)C[C@@H]21 (single isomer, unassigned) [Compound 54*]	7.48	8.04	7.51
